Laboratory results taken from publication PMC8173716 (Nature nanotechnology, 2020).

Columns and labels:
NE [1] = conditions: cited from earlier work
mouse NE = experiment: Inhibition of mouse NE cleavage of vABNs by sivelestat, in vitro; assay type: biochemical
NE [2] = experiment: vABN breath test in PA01-inoculated mice treated with sivelestat; assay type: in vivo, mouse; conditions: sivelestat before vABN delivery
NE [3] = experiment: vABN breath test in WT and SERPINA1a-e knockout mice; assay type: in vivo, mouse (male C57BL/6 WT and Serpina1a-e knockout); conditions: 1 mg prophylactic A1AT, LPS
NE [4] = experiment: vABN breath test in LPS-challenged mice given prophylactic A1AT; assay type: in vivo, mouse (female C57BL/6N)
human NE = conditions: cited from earlier work
NE in mouse lung lysates = conditions: cited from earlier work

CC(C)(C)C(=O)Oc1ccc(S(=O)(=O)Nc2ccccc2C(=O)NCC(=O)O)cc1 [sivelestat]
specific inhibition of NE (NE [1]): specifically inhibits NE | inhibition of mouse NE cleavage of vABNs (mouse NE): mouse NE can be inhibited using sivelestat to prevent cleavage of vABNs | attenuation of breath signal in infected mice (NE [2]): ~ 75%

A1AT: Alpha-1 antitrypsin, a protein inhibitor of NE
neutrophil recruitment / anti-inflammatory effect (NE [1]): suppressed neutrophil recruitment, a well-documented anti-inflammatory effect of A1AT | breath signal in A1AT-treated knockout mice vs untreated knockout mice (NE [3]; p < 0.05, n = 7–8): significantly lower than that in untreated knockout mice | AUROC, A1AT-treated knockout vs WT with acute inflammation (NE [3]; p = 0.568): 0.60 | breath signal after LPS challenge (NE [4]; 1-mg A1AT 1–2 days before LPS challenge, vs untreated LPS-challenged controls): significantly reduce breath signal | breath signal after LPS challenge (NE [4]; 1-mg A1AT 3 days before LPS challenge (D-3), vs untreated controls): absence of significant difference | AUROC, untreated vs A1AT-treated (NE [4]; A1AT 1 day before LPS challenge (D-1)): 0.97 | AUROC, untreated vs A1AT-treated (NE [4]; A1AT 2 days before LPS challenge (D-2)): 0.91 | AUROC, untreated vs A1AT-treated (NE [4]; A1AT 3 days before LPS challenge (D-3)): 0.50 | correlation between breath signal and A1AT in the lungs (Pearson's r) (NE [4]; p = 0.0293): −0.6018 | protection by day 3 (NE [4]; single 1 mg AAT dose): No protection is observed by day 3

Ac-Nle(O-Bzl)-Met(O)2-Oic-Abu-ACC
selectivity for human NE (human NE): selectivity for human NE | catalytic efficiency (kcat/Km) (human NE; fluorogenic ACC substrate): 4.79e+07 M⁻¹ s⁻¹ | binding in mouse lung lysates (NE in mouse lung lysates): bind specifically to NE in mouse lung lysates
